Experimental data published in US8343458B2, “Probes for in vivo targeting of active cysteine proteases” (The Board of Trustees of the Leland Stanford Junior …, priority 2008, dated 2013).
“Also recorded” adds a separate entry of the source.

What was measured:
cathepsins B and L = test: Labeling of intact tumor cells (SDS-PAGE, gel scan); assay type: cell-based, mouse (C2C12/Ras), human (MDA-MB-435)
From the text: FIG. 2 is a series of figures which, taken together, show the structure and function of representative in vivo probes. FIG. 2A is a schematic drawing of a chelator—conjugated probe, illustrating several component moieties. FIGS. 2B and 2C are gels showing expression and activity of enzyme targets of such probe, with a radionuclide label attached to the illustrated structure, showing the expression and activity of CB in a mouse myoblast cell line C2C12Ras and human breast cancer cell line MDA-MB-435. […] Cells were pretreated with JPM-OEt (50 μM) (+) or with control DMSO (0.1%) (−) for 2 h and labeled by addition of ^64Cu-Z-FK(DOTA)-AOMK (555 KBq, 15 μCi) to culture medium for 2 h. Cells were collected, lysed and analyzed after SDS-PAGE. The labeled proteases were visualized by scanning of the gel with a Typhoon 9410 imager.
Before applying the radiolabel probe in vivo we first tested the ability of the probe to label multiple tumor cell lines grown in vitro. We initially examined the labeling of the human breast cancer cell line MBA-MB-435 and a mouse myoblastoma cell line that had been transformed by overexpression of the ras oncogene (C2C12/Ras). Both of these cell lines were used for in vivo imaging studies with the NIRF-labeled cysteine cathepsin probes. To confirm earlier studies of these cells using the NIRF probes we labeled them with general Cy5-labeled probe GB123 (FIG. 1C). […] Labeling of the same cells with ^64Cu-Z-FK(DOTA)-AOMK confirmed that the DOTA produced a similar labeling pattern to that observed for the NIRF probe GB123.
C2C12/Ras and MDA-MB-435 cells (0.25 M each well) were seeded in a six-well plate one day before the study. Cells were pretreated with the general papain family protease inhibitor JPM-OEt (50 μM^28) or with control DMSO (0.1%) for 1 h and labeled by addition of ^64Cu-Z-FK(DOTA)-AOMK (555 KBq, 15 μCi) to culture medium for 2 h. Cells was then washed with PBS and lysed. Equal amounts of protein per lane were separated by 12% SDS-PAGE. […] The labeled bands were quantified with ImageJ 1.36b (public domain software from National Institute of Health).

C2C12/Ras tumors = test: Biodistribution in nude mice bearing subcutaneous C2C12/Ras tumors; assay type: in vivo, mouse; details: C2C12/Ras tumor mice, i.v. 740 kBq
Experimental: All animal studies were carried out in compliance with Federal and local institutional rules for the conduct of animal experimentation. Female athymic nude mice (nu/nu) were obtained from Charles River Laboratories (Boston, Mass.) at 7-8 weeks old and kept under sterile conditions. The nude mice were inoculated subcutaneously in the right shoulder with 2×10^6 cultured C2C12/Ras cells or 5×10^6 MDA-MB-435 cells. When the tumors reach 0.5-0.8 cm in diameter, the tumor bearing mice were subjected to in vivo biodistribution studies. For biodistribution studies, the mice bearing C2C12/Ras or MDA-MB-435 tumor xenografts (n=3 for each group) were injected with 740 KBq (20 μCi) of ^64Cu labeled tracer through the tail vein and sacrificed at different time points post injection (p.i.). Tumor and normal tissues of interest were removed and weighed, and their radioactivity was measured in a gamma-counter. The radioactivity uptake in the tumor and normal tissues was expressed as a percentage of the injected radioactive dose per gram of tissue (% ID/g).
We next examined the overall biodistribution of ^64Cu-Z-FK(DOTA)-AOMK using athymic nude mice carrying subcutaneously grafted C2C12/Ras and MDA-MB-435 tumors. […] Importantly, we observed rapid accumulation of radioactivity in the C2C12/Ras tumors expressing high levels of cysteine cathepsins (0.35±0.13% ID/g at 0.5 h p.i.). This activity remained in the tumors resulting in an uptake of 0.27±0.05% ID/g at 24 h p.i. For the MDA-MB-435 tumors with lower cysteine cathepsin expression, tumor uptake was approximately 2 fold lower at each time point relative to the C2C12/Ras tumors (P<0.05). […] The highest radioactivity was found in the liver due to high endogenous expression of various cysteine cathepsins. Moderate renal accumulation was also observed at all times in both tumor models.
Data are expressed as the percentage administered activity (injected dose) per gram of tissue (% ID/g) after intravenous injection of 740 kBq (20 μCi) of ^64Cu-Z-FK(DOTA)-AOMK at 0.5, 2, and 24 h pi (n=3). Significant lower tumor uptake and tumor/blood, tumor/muscle ratio in MDA-MB-435 breast cancer (P<0.05) were observed.

[1] = Octanol/water partition coefficient; assay type: physicochemical; details: octanol / PBS pH 7.4, repeated 3 times
Experimental: Octanol/water partition coefficient. To determine the lipophilicity of ^64Cu-Z-FK(DOTA)-AOMK, approximately 370 kBq of ^64Cu-labeled complex in 500 μl of PBS (pH 7.4) was added to 500 μl of octanol in an eppendorf microcentrifuge tube. The resulting biphasic system was mixed vigorously for 10 min and left at room temperature for another 60 min. The two phases were then separated by centrifugation at 2000 g for 5 min (model 5415R Eppendorf microcentrifuge; Brinkman, Westbury, N.Y.). From each layer, an aliquot of 100 μl was removed and counted in a γ-counter (Packard Instruments). The partition coefficient (log P) was then calculated as a ratio of counts in the octanol fraction to the counts in the water fraction. The experiment was repeated 3 times. The lipophilicity of the probe affects its in vivo pharmacokinetics, and should be modest (˜0), with hydrophobic and hydrophilic groups present. For further details, see Lin et al., “Role of Pharmacokinetics and Metabolism in Drug Discovery and Development,” Pharmacological Reviews, Vol. 49, Issue 4, 403-449, December 1997.

C2/C12 Ras tumors = test: Tumor uptake of 64Cu-labeled cathepsin probes in tumor-bearing mice (FIG. 7); assay type: in vivo, mouse; details: 64Cu-labeled probe; for tumor uptake after 2 hrs / tumor uptake after 24 hours: IV
Experimental: Mice bearing tumors derived from […] C2/C12 Ras transformed cells were IV injected with ^64Cu-labeled probes. Images and total probe accumulation in tumors (arrows) is shown. For purposes of reproduction, the image is converted to black and white and reversed.
Essentially, two to four weeks prior to imaging MDA-MB 231 or C2C12/ras cells (a myoblast cell line wherein ras blocks differentiation) at 2×10^6 cell per spot were injected subcutaneous to the back of Balb-c nude mice.
Mice bearing tumors of similar size were injected intravenous via the tail vein with a DMSO/PBS solution of the compound to be tested. DMSO/PBS was locally injected directly into tumors in indicated mice, 15 minutes prior to probe injection. Fluorescent intensity as photons per second per centimeter square per steradian (p/s/cm2/sr) was recorded from living mice. Images were taken at various time points after probe injection using an IVIS 200 imaging system equipped with a Cy5.5 filter. Other protocols are known and may be adapted for administration and imaging in vivo using the present compounds. Another protocol for mouse studies is given in Joyce et al. “Cathepsin cysteine proteases are effectors of invasive growth and angiogenesis during multistage tumorigenesis,” Cancer Cell 5:443-452 (May 2004), at page 452.
In an initial attempt to make PET compatible cathepsin probes, a Cy5 tag was replaced with a group that could be used to bind ^64Cu. This was compound ^64Cu-DOTA-FFK-AOMK (GB172). […] Without wishing to be bound by any theory, it was reasoned that this poor accumulation in tumors was likely due to changes in the pharmacokinetic (PK) and cell permeability properties as the result of removal of the large, hydrophobic fluorophore molecule. While the improved uptake of the probe having both the macrocyclic chelator and the polyaromatic functionality (Cy5), it is thought that the combination of a bulky chelator and a substituted polyaromatic provided the probe molecule with provided a balance of mass, charge and hydrophobicity that gave the probe increased permeability through the outer lipid membranes of the cells. Following this logic, a version of GB-123 that retains the Cy5 fluorophore and also contains a site for attachment of the PET imaging tag was prepared. This was 64 Cu (GB170).

cathepsin B [2] = details: Kato et al. Nat Chem Biol 2005; cited from earlier work
Cathepsin Z, H, J, C = details: Kato et al. Nat Chem Biol 2005; cited from earlier work
cathepsin B [3] = target: cathepsin B (Homo sapiens, UniProt P07858); test: Kinetic inhibition study, cathepsin B; assay type: biochemical; details: kinetic inhibition studies
From the text: (§1) We attached the chelator and radionuclide to the probe at the P1 lysine side-chain. By attaching the radiolabel to a side chain, it is less likely to interfere with the binding of the AOMK warhead to the active protease. Previous work has shown that the majority of critical substrate interactions take place in the P2 position of the papain family proteases.
(§2) The kinetics of inhibition may be determined by progress curve method under pseudo-first order conditions with at least 10-fold molar excess of inhibitor. Recorded progress curves are analysed by non-linear regression according to the following equation (Bieth, J. G. Theoretical and practical aspects of proteinase inhibition kinetics. Methods Enzymol, 248, 59-84 (1995).) [P]=vz(1−e^−k·t)/k • where [P] is the product, vz is the velocity at time zero and k is the pseudo first order rate constant. Apparent rate constant (kapp) was determined from the slope of plot k versus [I]. […]
(§3) Activity of human cathepsin L is measured using the fluorogenic substrate Z-FRAMC37 (Bachem, USA) (Km=7.1 μM) and cathepsin B is assayed against the fluorogenic substrate Z-RR-AMC38 (Bachem, USA) (Km=114 μM). […] Increase of fluorescence (370 nm excitation, 460 nm emission) is continuously monitored for 30 minutes by Spectramax M5 spectrofluorimeter. (Molecular Devices, USA) and inhibition curves were recorded. […]

human cathepsin L = human cathepsin L (Homo sapiens, UniProt P07711); test: Kinetic inhibition study, cathepsin L; assay type: biochemical; details: kinetic inhibition studies
Sequence of human cathepsin L (P07711 114-333): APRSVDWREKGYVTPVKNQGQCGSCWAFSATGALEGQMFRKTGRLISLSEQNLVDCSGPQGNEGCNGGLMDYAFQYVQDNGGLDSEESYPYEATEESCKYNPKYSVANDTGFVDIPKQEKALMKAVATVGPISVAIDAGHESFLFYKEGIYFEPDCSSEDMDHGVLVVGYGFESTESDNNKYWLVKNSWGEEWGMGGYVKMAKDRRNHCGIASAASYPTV
From the text: as §1, §2, §3

**Q.** Which “Effect of inhibitor pretreatment on probe labeling of protease targets” value (cathepsins B and L; cells pretreated with 50 μM inhibitor, then labeled with 64Cu-Z-FK(DOTA)-AOMK) does the source give for JPM-OEt here?
**A.** complete loss of labeling

**Q.** Which “Biodistribution: Tumor” value (C2C12/Ras tumors; 2 h p.i.) does the source give for `Cc1cccc(C)c1C(=O)OCC(=O)[C@H](CCCCNC(=O)CN1CCN(CC(=O)O)CCN(CC(=O)O)CCN(CC(=O)O)CC1)NC(=O)[C@H](Cc1ccccc1)NC(=O)OCc1ccccc1` [Z-FK(DOTA)-AOMK] here?
**A.** 0.30±0.03 % ID/g

**Q.** What about the “Biodistribution: Tumor” value (C2C12/Ras tumors; 24 h p.i.) of the same compound?
**A.** 0.27±0.05 % ID/g

**Q.** And the “log P (octanol-water partition coefficient)” value [1]?
**A.** −0.10±0.04

**Q.** With `CC[N+]1=C(/C=C/C=C/C=C2\N(CCCCCC(=O)NCCCC[C@H](NC(=O)[C@H](Cc3ccccc3)NC(=O)[C@H](Cc3ccccc3)NC(=O)CN3CCN(CC(=O)O)CCN(CC(=O)O)CCN(CC(=O)O)CC3)C(=O)COC(=O)c3c(C)cccc3C)c3ccc(S(=O)(=O)O)cc3C2(C)C)C(C)(C)c2cc(S(=O)(=O)O)ccc21` [GB 170, DOTA-FFK(Cy5)-AOMK] as the compound, how does the “Tumor uptake in PET studies (in words)” value (C2/C12 Ras tumors) read?
**A.** dramatically increased uptake in tumor tissues

**Q.** And the “tumor uptake after 2 hrs” value (C2/C12 Ras tumors)?
**A.** 3.17 ± 0.05

**Q.** And the “tumor uptake after 24 hours” value (C2/C12 Ras tumors)?
**A.** 1.56 ± 0.23

**Q.** For `Cc1cccc(C)c1C(=O)OCC(=O)[C@H](CCCNC(=N)N)NC(=O)[C@H](Cc1ccccc1)NC(=O)OCc1ccccc1` [Z-FR-AOMK], which “Activity against cathepsin B” value (cathepsin B [2]) is on record?
**A.** active only against cathepsin B; also recorded: inhibits cathepsin B

**Q.** And the “Activity against cathepsins Z, H, J, C” value (Cathepsin Z, H, J, C)?
**A.** not cathepsins Z, H, J, H or C; also recorded: not Cathepsin Z, H, J, C or H

**Q.** With `Cc1cccc(C)c1C(=O)OCC(=O)[C@H](CCCCN)NC(=O)[C@H](Cc1ccccc1)NC(=O)[C@H](Cc1ccccc1)NC(=O)CN1CCN(CC(=O)O)CCN(CC(=O)O)CCN(CC(=O)O)CC1` [GB 172, DOTA-FFK-AOMK] as the compound, how does the “Tumor uptake in PET studies (in words)” value (C2/C12 Ras tumors) read?
**A.** overall probe uptake was very low

**Q.** And the “tumor uptake after 2 hrs” value (C2/C12 Ras tumors)?
**A.** 0.41 ± 0.07

**Q.** What about the “tumor uptake after 24 hours” value (C2/C12 Ras tumors) of the same compound?
**A.** 0.32 ± 0.04

**Q.** With `CC[N+]1=C(/C=C/C=C/C=C2\N(CCCCCC(=O)NCCCC[C@H](NC(=O)[C@H](Cc3ccccc3)NC(=O)[C@H](Cc3ccccc3)NC(=O)CN3CCN(CC(=O)O)CCN(CC(=O)O)CCN(CC(=O)O)CC3)C(N)=O)c3ccc(S(=O)(=O)O)cc3C2(C)C)C(C)(C)c2cc(S(=O)(=O)O)ccc21` [GB 173, DOTA-FFK(Cy5)-AOMK-Amide] as the compound, how does the “tumor uptake after 2 hrs” value (C2/C12 Ras tumors) read?
**A.** 1.71 ± 0.08

**Q.** What about the “tumor uptake after 24 hours” value (C2/C12 Ras tumors) of the same compound?
**A.** 0.37 ± 0.13

**Q.** For `CCN1C(=CC=CC=CC2=[N+](CCCCCC(=O)NCCCC[C@H](NC(=O)[C@H](Cc3ccccc3)NC(=O)OCc3ccccc3)C(=O)COC(=O)c3c(C)cccc3C)c3ccc(S(=O)(=O)O)cc3C2(C)C)C(C)(C)c2cc(S(=O)(=O)O)ccc21` [GB123], which “Cathepsin B and L activity of C2C12/Ras relative to MDA-MB-435 cells by probe labeling” value (cathepsins B and L; cells labeled with Cy5-labeled probe) is on record?
**A.** 7.4 fold

**Q.** For `Cc1cccc(C)c1C(=O)OCC(=O)[C@H](CCCCN)NC(=O)[C@H](Cc1ccccc1)NC(=O)OCc1ccccc1` [NH2-GB11], which “Loss of potency for cathepsin B on modification of the P1 lysine” value (cathepsin B [3]) is on record?
**A.** 30 fold

**Q.** What about the “Loss of potency towards cathepsin L on modification of the P1 lysine” value (human cathepsin L) of the same compound?
**A.** 100 fold
